Holding throughout (format): biochemical, Variovorax paradoxus
For assay [1], the system named is D-amidase. As to the kind of experiment: Enzyme test for amino acid amides and α-hydroxycarboxylic acid amides (HPLC or NH4+ determination). As to conditions: substrate 40 mM. The procedure:
For prolinamide, and the α-hydroxycarboxylic acid amides lactic acid amide (Lac-NH2) and 2-hydroxy-4-methylmercaptobutyric acid amid (MHA-NH2), the methionine-analogous α-hydroxycarboxylic acid amide, determination of the product with the previous HPLC analysis is not possible. For these substrates, the activity was determined with the aid of NH4^+ determination. […] All the substrates were employed in the enzyme test at 40 mM. In the 4th column, for further comparison the activity for the lower enantiomer has been set at 1 and a relative activity for the preferred enantiomer has been calculated therefrom.
(§1) In the conversion of tert-leucinamide (gen. acid amides) by the D-amidase, the formation of ammonia or ammonium ions and tert-leucine (gen. acid) in equimolar amounts occurs. […] The change in concentration of the components participating can be measured in an enzyme test, which comprises incubation of the following test batch for 10-60 minutes at 30° C.
(§2) The enzyme test was started by addition of the substrate and the reaction was stopped by heating at 95° C. for three minutes. The analysis of the reaction products was carried out for ammonium ions by enzymatic determination of ammonium by glutamate dehydrogenase (Bergmeyer, H.,U., and Beutler, H.-O. (1985) Ammonia. In: Methods of Enzymatic Analysis. VCH-Verlag, 3rd edition, vol. 8: 454-461, Weinheim) and for D- and L-tert-leucine by means of HPLC (Bruckner, H., Wittner R., and Godel H., (1991) Fully automated high-performance liquid chromatographic separation of DL-amino acids derivatized with o-phthaldialdehyde together with N-isopropyl-cysteine. Application to food samples. Anal. Biochem. 144(1): 204-206). Batches to which no substrate were added served as controls.
(§3) The separation and quantitative determination of the enantiomers D- and L-tert-leucine were carried out by a “chiral derivatization” on the basis of o-phthaldialdehyde (OPA)/N-isobutyryl-L-cysteine or N-isobutyryl-D-cysteine (Brückner, H.; Wittner R. and Godel H. (1991), Fully automated high-performance liquid chromatographic separation of DL-amino acids derivatized with o-Phthaldialdehyde together with N-isopropyl-cysteine. Application to food samples. Anal. Biochem. 144, 204-206). The diastereomeric isoindole derivatives formed were separated on an RP-18 (reversed phase) column and detected by fluorescence. A two-buffer system of aqueous acetate buffer and an acetonitrile/water mixture was used as the mobile phase.

For assay [2], the system named is D-amidase. As to the kind of experiment: Kinetic cleavage of racemic amino acid amides: enantioselectivity as a function of the conversion. The procedure: To evaluate the suitability for kinetic cleavage of racemic DL-Tle-NH2, the enantioselectivity was determined as a function of the conversion.
DL-Valin-, DL-leucin- and DL-phenylalaninamide were alos tested in this respect. For this, the enantioselectivity was determined as function of the conversion with partly purified enzyme from Variovorax paradoxus 19-3 after the 1st chromatography step.
as §3

The subject of assay [3] is D-amidase. As to the kind of experiment: Specific activity of crude extracts and purified D-amidase for DL-Tle-NH2. As to conditions: DL-Tle-NH2 as the substrate. The procedure:
as §1, §2

The test system of assay [4] is D-amidase. As to the kind of experiment: Enzyme test for N-formylated amino acid amides, NH4+ determination with glutamate dehydrogenase. The procedure:
The cleavage of racemic N-formylated amino acid amides was investigated by using the D-amidase according to the invention. The enzyme used was a partly purified D-amidase after the 1st chromatography step. The activity was measured by determining the NH4^+ ions with glutamate dehydrogenase (Bergmeyer, H. U., and Beutler, H.-O. (1985), Ammonia. In: Methods of Enzymatic Analysis. VCH-Verlag, 3rd edition, vol. 8: 454-461, Weinheim). The following substrates were employed in the enzyme test at 10 mM. The enzyme glutamate dehydrogenase (GluDH; E.C.1.4.1.3) converts 2-oxoglutarate into L-glutamate, ammonium ions being consumed and NADH being oxidized to NAD+(Bergmeyer, H.,U. and Beutler, H.-O. (1985), Ammonia. In: Methods of Enzymatic Analysis. VCH-Verlag, 3rd edition, vol. 8: 454-461, Weinheim). The amount of NADH consumed during the reaction is equivalent to the amount of ammonium ions. The change in the concentration of NADH is the measurement parameter and can be determined spectrophotometrically at a wavelength of 340 nm.

Assay [5] concerns D-amidase. The assay is described as follows: Enzyme test for acid amides, activity by determination of ammonium ions with glutamate dehydrogenase. As to conditions: for Activity with respect to Tle-NH2: DL-Tle-NH2 = 1; for Relative act.: partly purified D-amidase after the 2nd chromatography step (0.51 U/mg). The procedure: The activity was measured by determination of the ammonium ions with glutamate dehydrogenase (Bergmeyer, H. U., and Beutler, H.-O. (1985), Ammonia. In: Methods of Enzymatic Analysis. VCH-Verlag, 3rd edition, vol. 8: 454-461, Weinheim). […] The substrates were employed in the enzyme test at 40 mM, except for succinic acid diamide and adipic acid diamide, each at 10 mM, and benzylamide at 20 mM. Since the activities were determined only at in each case one substrate concentration, relative activities are stated.
as §1, §2
The enzyme glutamate dehydrogenase (GluDH; E.C.1.4.1.3) converts 2-oxoglutarate into L-glutamate, ammonium ions being consumed and NADH being oxidized to NAD+(Bergmeyer, H.,U. and Beutler, H.-O. (1985), Ammonia. In: Methods of Enzymatic Analysis. VCH-Verlag, 3rd edition, vol. 8: 454-461, Weinheim). The amount of NADH consumed during the reaction is equivalent to the amount of ammonium ions. The change in the concentration of NADH is the measurement parameter and can be determined spectrophotometrically at a wavelength of 340 nm.
The test components were pipetted into cells of plastic (1.5 ml semimicro disposable cells, Brand) and mixed and the extinction at 340 nm was determined after 5 min. 10 μl GluDH were then added, and after the reaction had gone to completion, as a rule after 30 min, the extinction was measured again.

As to `CC(C)(C)C(N)C(N)=O` (racemic) [DL-Tle-NH2, D,L-tert-Leucinamide], the “Activity with respect to Tle-NH2” value in the assay with D-amidase [1] (DL-Tle-NH2 = 1) is recorded as 1; with D-amidase [4] (Table 4, DL-Tle-NH2 = 100), 100%; with D-amidase [5] (substrate 40 mM) it was 1. Also, the Specific activity with D-amidase [1] (partly purified D-amidase after the 2nd chromatography step (0.56 U/mg), Pro-, Lac-, MHA-NH2 by NH4+ determination) is listed as 0.56 U/mg; with D-amidase [3] (D-amidase after the first two purification steps), 0.68 U/mg; with D-amidase [3] (crude extract of E. coli JM 101 expression clones), 80-210 mU/mg; in the assay on D-amidase [3] (homogeneously purified D-amidase from Variovorax paradoxus) it was 1.4 U/mg. The E value result in the assay on D-amidase [2] (both series of experiments (partly purified and virtually homogeneous enzyme)) is “greater than 100”. The “enantioselectivity with respect to D-Tle” value with D-amidase [2] (partly purified enzyme after the 1st chromatography step, conversion of greater than 45%) was found to be 96.6%. Further, the Relative act. with D-amidase [4] (Table 4, substrate 10 mM, partly purified D-amidase after the 1st chromatography step) is 200 mU/mg; in the assay with D-amidase [5] (substrate 40 mM), 0.51 U/mg.
In the case of `CC(C)[C@H](N)C(N)=O` (racemic) [DL-Val-NH2, valinamide], the E value turned out to be 190 in the assay with D-amidase [2] (conversion 3%); 180 in the assay on D-amidase [2] (conversion 15%); 200 with D-amidase [2] (conversion 29%); 220 in the assay with D-amidase [2] (conversion 42%); 140 in the assay on D-amidase [2] (conversion 50%); 56 in the assay with D-amidase [2] (conversion 57%). The “ee D-Val” value in the assay with D-amidase [2] (conversion 3%, partly purified enzyme after the 1st chromatography step) came out at 98.9%; in the assay with D-amidase [2] (conversion 15%, partly purified enzyme after the 1st chromatography step), 98.7%; in the assay with D-amidase [2] (conversion 29%, partly purified enzyme after the 1st chromatography step), 98.5%; in the assay with D-amidase [2] (conversion 42%, partly purified enzyme after the 1st chromatography step), 98.1%; in the assay with D-amidase [2] (conversion 50%, partly purified enzyme after the 1st chromatography step), 95.1%; with D-amidase [2] (conversion 57%, partly purified enzyme after the 1st chromatography step), 75.0%. Moreover, the “Activity with respect to Tle-NH2” value with D-amidase [4] (Table 5, DL-Val-NH2 = 100) amounted to 100%. In addition, the Relative act. in the assay on D-amidase [4] (Table 5, comparison of valinamide and N-formyl-valinamide) amounted to 870 mU/mg.
With Benzylamide, in the assay on D-amidase [5] (substrate 20 mM), the “Activity with respect to Tle-NH2” value came to 5.2 and the Relative act. was 2.6 U/mg.

These data come from patent publication US20030186423A1, “Amidase from variovorax” (Degussa AG, priority 2001, published 2003).
